We go through five molecules from publication PMC9502403, “Saquayamycin B1 Suppresses Proliferation, Invasion, and Migration by Inhibiting PI3K/AKT Signaling Pathway in Human Colorectal Cancer Cells” (Marine Drugs, 2022).

The subject of assay [1] is SW480 cells. The assay can be described thus: Annexin V-FITC/PI flow cytometry of apoptosis, SW480. The assay is classed as cell-based, human. The text has this:
(§1) Annexin V-FITC and Propidium Iodide (PI) apoptosis-detection kits were used to determine the specific proportion of apoptotic cells. Annexin V-FITC is used to detect phosphatidylserine, which moves from the inside of the membrane to the surface of the cell membrane during apoptosis, producing green fluorescence. Late apoptotic cells whose cell membrane integrity is destroyed can be stained with PI, producing red fluorescence.
(§2) An Annexin V-FITC apoptosis detection kit was used to detect cell apoptosis by flow cytometry after staining. The cells were placed in 6-well plates and digested by trypsin (Solarbio, Beijing, China) after Saq B1 treatment. Then, the cells were washed with PBS and centrifuged for 5 min, and the supernatant was discarded. Annexin V-FITC binding buffer was added to gently suspend the cells. Annexin V-FITC and PI were successively added and slowly mixed. Apoptosis was immediately assessed by flow cytometry (Becton, Dickinson and Company, San Jose, CA, USA). Each sample was measured three times.

In assay [2] the test system is SW480 cells. The assay can be described thus: Colony formation assay. The assay is classed as cell-based, human. Particulars: SW480, with increasing concentration, 14 days. An excerpt: The cell colony formation assay is an important technique for detecting cell proliferation, invasiveness, and drug sensitivity. After digestion of trypsin in the logarithmic growth phase, the cells were inoculated on 6-well plates at a density of 700 cells/well. The medium was refreshed every 3 days and treatment continued for 14 days. Finally, the colonies were fixed with 4% paraformaldehyde and stained with crystal violet. Colonies with >50 cells were counted and photographed.

A further assay relates to LoVo cells. Kind of assay: MTT cytotoxicity assay, LoVo. It counts as cell-based. To be noted: Homo sapiens, 48 h, mean ± SD. How it is done:
(§3) Human CRC cell lines SW480 (BeNa Culture Collection, Xinyang, China), SW620 (Procell Life Science & Technology Co., Ltd., Wuhan, China), and HT-29 (Zhong Qiao Xin Zhou Biotechnology Co., Ltd., Shanghai, China) were cultured in RPMI 1640 Medium (Livning Biotechnology Co., Ltd., Beijing, China), LoVo cells (Zhong Qiao Xin Zhou Biotechnology Co., Ltd., Shanghai, China) were cultured in DMEM/F12 (Livning Biotechnology Co., Ltd., Beijing, China), and normal human liver cell line QSG-7701 (Beyotime Institute of Biotechnology, Shanghai, China) was cultured in DMEM/high glucose (Livning Biotechnology Co., Ltd., Beijing, China) containing 10% fetal bovine serum (FBS) (Gibco Life Technologies, San Jose, CA, USA). The cells were cultured in a constant temperature incubator at 37 °C, 5% CO2.
(§4) The cytotoxicity of Mor B, Saq B1, Saq B, and Lan N on CRC and the normal human liver cells was detected by MTT (3-(4,5-dimethylthiazol)-2,5-diphenyltetrazolium bromide) assay (Sigma-Aldrich Corp., St. Louis, MO, USA). Cells were evenly distributed in 96-well plates overnight and then treated with Mor B, Saq B1, Saq B, and Lan N at different concentrations for 48 h. The negative control group was treated with the same concentration of DMSO. After treatment, 10 μL of the 5 mg/mL MTT solution was added to each well in the incubator for 4 h. Then, the MTT solution was removed and 150 μL DMSO was added into each hole to dissolve the purple crystal. The absorbance of each well was read at 570 nm with a microplate reader, and the IC50 values were calculated using the software. Each sample was measured three times independently.
Background: Formazan colour is commonly taken as a measure of viable cells.

Assay [3] deals with SW480 cells. The assay can be described thus: Wound-healing assay. It counts as cell-based, human. To be noted: SW480, with increasing dose, 48 h. As to the method: To determine the migratory ability of cells in vitro, we adopted the cell scratch test. Cells were placed in a 6-well plate at a density of 5 × 10^4 cells per well. When the cells had adhered to 90% of each well, we made equal-width scratches at the same position in each hole with sterile micropipette tips. Each well was washed three times with PBS to remove suspended cells. The cells in the well were treated with different concentrations of Saq B1. The wound-healing rate (%) = (1 − (the width of the assay group/the width of the control group)) × 100% was calculated according to the width of the scratches in each group to evaluate the migratory ability of the cells. Each sample was measured three times.

The next assay has as its system CRC cells. The assay can be described thus: MTT cytotoxicity assay, CRC cells (range over lines). The assay is classed as cell-based. Particulars: Homo sapiens, range over SW480, SW620, LoVo, HT-29. How it is done: as §3
The cytotoxicity of Mor B, Saq B1, Saq B, and Lan N on CRC and the normal human liver cells was detected by MTT (3-(4,5-dimethylthiazol)-2,5-diphenyltetrazolium bromide) assay (Sigma-Aldrich Corp., St. Louis, MO, USA). Cells were evenly distributed in 96-well plates overnight and then treated with Mor B, Saq B1, Saq B, and Lan N at different concentrations for 48 h. […] The absorbance of each well was read at 570 nm with a microplate reader, and the IC50 values were calculated using the software. Each sample was measured three times independently.

The test system of another assay is QSG-7701 cells. Kind of assay: MTT cytotoxicity assay, QSG-7701 normal liver cells. It counts as cell-based. Particulars: QSG7701, 48 h, normal human liver cells, mean ± SD. How it is done: as §3, §4
Another assay relates to Bax/Bcl-2. Kind of assay: Western blot of Bax and Bcl-2. It counts as cell-based, human. Particulars: SW480 and SW620 cells. How it is done:
(§5) Western blotting was used to reveal changes in the expression of specific proteins after Saq B1 treatment. The cells treated with varying doses of Saq B1 were lysed with RIPA buffer (Beyotime Biotech, Shanghai, China) to obtain total protein, which was quantified using a BCA kit. The proteins with different molecular weights were separated by SDS-PAGE electrophoresis. The protein was transferred to a PVDF membrane and sealed with 5% skim milk for 1 h. After washing with TBS-T buffer, the respective primary antibodies were added to the membrane and incubated at 4 °C overnight. Next, the PVDF membrane was washed with TBS-T buffer three times and incubated with antimouse IgG or antirabbit IgG secondary antibody (CST, Inc., Beverly, MA, USA) for 1 h at room temperature. Proteins on the membranes were visualized using the enhanced chemiluminescence detection kit (ECL®, Amersham Biosciences, Little Chalfont, UK).
A general note: A western blot detects proteins with antibodies after separation by electrophoresis.

For assay [4], the system named is SW480 cells. The assay can be described thus: MTT cytotoxicity assay, SW480. The assay is classed as cell-based. Particulars: Homo sapiens, 48 h, mean ± SD. As to the method:
as §3, §4

The test system of assay [5] is E-cadherin, N-cadherin, and vimentin. Kind of assay: Western blot of EMT markers. The assay is classed as cell-based, human. Particulars: SW480 and SW620 cells, 0–0.3 μmol/L. As to the method: as §5
Assay [6] relates to SW480 cells. The assay can be described thus: Transwell migration and invasion assay. The assay is classed as cell-based, human. As to the method: The transwell assay is used to test the ability of cells to invade and metastasize. In the invasion assay, we placed transwell chambers in a 24-well plate, and cells were suspended in 200 μL serum-free medium at the density of 1 × 10^5 cells/mL. Then, cells were added to an upper chamber containing Matrigel, while 700 μL of the medium containing 20% FBS as a chemo-attractant was added to the lower chamber. The cells were treated with various doses of Saq B1 and incubated with 5% CO2 at 37 °C. Thereafter, all media were discarded, and the cells in the lower chamber were fixed in 4% paraformaldehyde for 20 min and placed in 0.5% crystal violet dye for 20 min. After washing the cells with PBS three times, five regions were selected randomly under the microscope, pictures were taken, and the number of transmembrane cells was counted. The migration assay followed the same procedure as the invasion assay but without Matrigel. Each sample was evaluated independently three times.

Assay [7] concerns SW620 cells. The assay can be described thus: MTT cytotoxicity assay, SW620. Particulars: Homo sapiens, SW-620, 48 h, mean ± SD. It counts as cell-based. How it is done:
as §3, §4

The next assay relates to HT-29 cells. The assay can be described thus: MTT cytotoxicity assay, HT-29. The assay is classed as cell-based. To be noted: Homo sapiens, 48 h, mean ± SD. How it is done:
as §3, §4

The test system of assay [8] is SW620 cells. Kind of assay: Annexin V-FITC/PI flow cytometry of apoptosis, SW620. It counts as cell-based, human.
Text: as §1, §2
In general terms: Flow cytometry measures light scatter and fluorescence of single cells or particles in a stream.

In a further assay the test system is PI3K/AKT pathway. The assay can be described thus: Western blot of PI3K, AKT, p-AKT. It counts as cell-based, human. To be noted: SW480 and SW620 cells, 0.1 μM, 0.2 μM, and 0.3 μM. As to the method:
as §5

A word on the IC50: it is the concentration needed to halve the response being measured. As to `C[C@@H]1O[C@H]2O[C@@H]3[C@@H](C)O[C@@H](c4ccc5c(c4O)C(=O)C4=C(C5=O)[C@@]5(O)C(=O)C[C@](C)(O)C[C@@]5(O)C=C4)C[C@H]3O[C@H]2CC1=O` [Saquayamycin B1], the apoptosis rate turned out to be 24.31% in the assay with SW480 cells [1] (SW480, Saq B1 0.1 μM); 30.75% in the assay on SW480 cells [1] (SW480, Saq B1 0.2 μM); 40.12% with SW480 cells [1] (SW480, Saq B1 0.3 μM); 8.11% with SW620 cells [8] (SW620, Saq B1 0.1 μM); 12.67% with SW620 cells [8] (SW620, Saq B1 0.2 μM); 30.69% in the assay on SW620 cells [8] (SW620, Saq B1 0.3 μM). In addition, in the assay with SW480 cells [2], the “size and number of cell clones” value was “declined”. The IC50 was 630 ± 70 nM in the assay with LoVo cells; 180 to 840 nM in the assay with CRC cells; 1570 ± 120 nM with QSG-7701 cells; 180 ± 10 nM in the assay with SW480 cells [4]; 260 ± 30 nM in the assay with SW620 cells [7]; 840 ± 50 nM in the assay with HT-29 cells. Besides, the “wound-healing rate of cells” value with SW480 cells [3] is “decreased gradually”. Besides, the “expression of Bax/Bcl-2” value with Bax/Bcl-2 is reported as “increased”. Besides, the “expression of epithelial adhesion protein E-cadherin” value in assay [5] was “increased”. Moreover, in [5], the “expression of mesenchymal protein N-cadherin” value was “decreased”. The “expression of mesenchymal protein vimentin” value in assay [5] is listed as “decreased”. The “cellular migration and invasion” value in the assay with SW480 cells [6] is reported as “dose-dependent inhibition”. The “protein expression level of AKT” value in the assay with PI3K/AKT pathway was “basically unchanged”. Further, the “protein expression level of PI3K” value in the assay with PI3K/AKT pathway is “decreased”. Moreover, in the assay on PI3K/AKT pathway, the “protein expression level of p-AKT” value is listed as “decreased”.

For `C[C@@H]1O[C@@H](O[C@H]2CC[C@H](O[C@@]3(C)CC(=O)[C@]4(O)C5=C(C=C[C@]4(O)C3)C(=O)c3c(ccc([C@H]4C[C@H]6O[C@H]7CC(=O)[C@H](C)O[C@H]7O[C@@H]6[C@@H](C)O4)c3O)C5=O)O[C@H]2C)C=CC1=O` [Saquayamycin B], the IC50 in the assay on LoVo cells was determined as 750 ± 30 nM; with QSG-7701 cells, 1380 ± 140 nM; in the assay on SW480 cells [4] it was 320 ± 30 nM; in the assay with SW620 cells [7], 420 ± 20 nM; in the assay on HT-29 cells it was 890 ± 20 nM.

In the case of `Cc1cc(O)c2c3c(cc(O)c2c1)C(=O)c1c(ccc([C@H]2C[C@H]4O[C@H]5CC(=O)[C@H](C)O[C@H]5O[C@@H]4[C@@H](C)O2)c1O)C3=O` [Landomycin N], the IC50 in the assay with LoVo cells, with QSG-7701 cells, in the assay on SW480 cells [4], in the assay with SW620 cells [7] and in the assay on HT-29 cells was more than 20000 nM throughout.

In the case of `COc1cccc2c1C(=O)c1c(O)c3c(c(O)c1C2=O)C[C@@](O)(C(=O)CO)C[C@@H]3O[C@H]1C[C@H](N)[C@H](O)[C@H](C)O1` [Doxorubicin, reference compound], the IC50 in the assay with LoVo cells is 830 ± 120 nM; with QSG-7701 cells, 1330 ± 30 nM; in the assay with SW480 cells [4], 910 ± 80 nM; in the assay with SW620 cells [7] it was 1060 ± 110 nM; with HT-29 cells it was 1020 ± 100 nM.

Consider `C[C@@H]1O[C@H]2O[C@@H]3[C@@H](C)O[C@@H](c4ccc5c(c4O)C(=O)c4ccc6c(c4C5=O)C(=O)C[C@](C)(O)C6)C[C@H]3O[C@H]2CC1=O` [Moromycin B], for which the IC50 in the assay with LoVo cells is 780 ± 20 nM; in the assay with QSG-7701 cells, 1260 ± 150 nM; in the assay on SW480 cells [4] it was 450 ± 60 nM; in the assay with SW620 cells [7], 340 ± 50 nM; in the assay with HT-29 cells, 820 ± 40 nM.
